Reference: patent US8629285B2, “Imidazole compounds that modulate HSP90 activity” (Synta Pharmaceuticals Corp., priority 2005, dated 2014)

Tested on: Her2
Experiment: Degradation of Her2 in BT-474 cells (Method 1, SDS-PAGE/immunoblot)
Assay type: cell-based, Human
Conditions: 0.5 μM, overnight
Description: Human high-Her2 breast carcinoma BT474 (HTB-20), SK-BR-3 (HTB-30) and MCF-7 breast carcinoma (HTB-22) from American Type Culture Collection, VA, USA are grown in Dulbecco's modified Eagle's medium with 4 mM L-glutamine and antibiotics (100 IU/ml penicillin and 100 ug/ml streptomycine; GibcoBRL). To obtain exponential cell growth, cells are trypsinized, counted and seeded at a cell density of 0.5×10^6 cells/ml regularly, every 3 days. All experiments are performed on day 1 after cell passage.
BT-474 cells are treated with 0.5 μM, 2 μM, or 5 μM of 17AAG (a positive control) or 0.5 μM, 2 μM, or 5 μM of a compound of the invention overnight in DMEM medium. After treatment, each cytoplasmic sample is prepared from 1×10^6 cells by incubation of cell lysis buffer (#9803, cell Signaling Technology) on ice for 10 minutes. The resulting supernatant used as the cytosol fractions is dissolved with sample buffer for SDS-PAGE and run on a SDS-PAGE gel, blotted onto a nitrocellulose membrane by using semi-dry transfer. Non-specific binding to nitrocellulose is blocked with 5% skim milk in TBS with 0.5% Tween at room temperature for 1 hour, then probed with anti-Her2/ErB2 mAb (rabbit IgG, #2242, Cell Signaling) and anti-Tubulin (T9026, Sigma) as housekeeping control protein. […]

C=CCNC1=C2C[C@@H](C)C[C@H](OC)[C@H](O)[C@@H](C)/C=C(\C)[C@H](OC(N)=O)[C@@H](OC)/C=C\C=C(/C)C(=O)NC(=CC1=O)C2=O [17AAG]
degradation of Her2: partial degradation
